Measurements reported in patent US20150071967A1, “Tolerisation-Inducing Composition” (University of Bristol, priority 2012, published 2015).

What was measured:
[1] = system: Th1 cells; experiment: IL-10 mRNA by qPCR in Th1 CD4+ cells; assay type: cell-based, mouse; conditions: IL-10 relative to HPRT1
Experimental: F. Splenocytes from a naive Tg4 mouse were cultured in the presence of peptide MBP Ac1-9 (10 μg/ml) and IL-12 with IL-2 added on day 3 of culture to polarise CD4+ cells towards a Th1 phenotype. On day 7 of culture, Th1 cells were restimulated with fresh irradiated APCs from a B10_PL mouse in the presence of DMSO (1:1000; Control), CHIR99021 (2 μM), SB216763 (5 μM) or SB627772 (10 µM) as well as peptide MBP Ac1-9 (10 μg/ml). IL-2 was added on day 3 of culture. On day 7 of restimulation live CD4^+ cells were selected and stimulated with anti CD3/CD28 antibodies for 16 hrs. RNA was extracted and IL-10 mRNA quantified by qPCR. IL-10 quantities are shown relative to HPRT1 control.
(§1) In a separate experiment, CD4+ cells from Tg4 mice which express TCR specific for the peptide Ac[1-9] of MBP were polarised to a Th1 phenotype and then cultured in the presence of GSK3 inhibitors. Three structurally distinct inhibitors, CHIR99021, SB216763 and SB627772 were used to minimise effects of off-target inhibition.

[2] = system: β-catenin; experiment: beta-catenin Western blot in Th1 CD4+ cells; assay type: cell-based, mouse; conditions: for β-catenin accumulation (Western blot): CD4+ cells, 2 μM CHIR99021, 5 μM SB216763, 10 μM SB627772; for β-catenin levels (Western blot): Th1 cells restimulated with APCs and peptide, indicated concentrations, day 7
Experimental: G. Splenocytes from a naive Tg4 mouse were cultured in the presence of peptide MBP Ac1-9 (10 μg/ml) and IL-12 with IL-2 added on day 3 to polarise cells to a Th1 phenotype. On day 7 cells were restimulated with fresh irradiated APCs from a B10_PL mouse, peptide Ac1-9 of MBP (10 μg/ml) and the indicated concentrations of CHIR99021, SB216763 or SB627772. On day 7 of restimulation, CD4^+ cells were lysed in RIPA buffer, subjected to Western blotting and probed with beta catenin antibody. The membrane was stripped and reprobed for GAPDH as a loading control.
Splenocytes from a naive Tg4 mouse were cultured in the presence of peptide MBP Ac1-9 (10 μg/ml) and IL12 with IL2 added on day 3 to polarise cells to a Th1 phenotype. On day 7 cells were restimulated with fresh irradiated APCs, peptide Ac1-9 of MBP (10 μg/ml) and the indicated concentrations of SB216763 or CHIR99021. On day 7 of restimulation, cells were lysed in RIPA buffer, subjected to Western blotting and probed with beta catenin antibody. The membrane was stripped and reprobed for GAPDH as a loading control. GSK-3 consititutively phosphorylates the β-catenin protein, leading to its degradation.

[3] = system: Th1 cells; experiment: IL-10 protein in Th1-polarised CD4+ cells restimulated with GSK-3 inhibitors (ICCS, bead immunoassay); assay type: cell-based, mouse; conditions: for IL-10 protein: Th1 CD4+ cells restimulated with APCs and peptide or with anti-CD3/anti-CD28 coated beads; for Intracellular IL-10 levels: Th1 cells restimulated with anti CD3/anti CD28 Dynabeads, 2 μM CHIR99021 or 3 μM SB216763, ICCS day 7
Experimental: A. Splenocytes from a naive Tg4 mouse were cultured in the presence of peptide MBP Ac1-9 (10 μg/ml) and IL-12 with IL-2 added on day 3 of culture to polarise CD4+ cells towards a Th1 phenotype. On day 7 of culture, Th1 cells were restimulated with fresh irradiated APCs from a B10_PL mouse in the presence of DMSO (1:1000; Control), CHIR99021 (2 μM), SB216763 (5 μM) or SB627772 (10 μM) as well as peptide MBP Ac1-9 (10 μg/ml). IL-2 was added on day 3 of culture and intracellular cytokine staining for IFNγ and IL-10 carried out on day 7 of restimulation after PMA and lonomycin stimulation. Data are plots gated on live CD4^+ cells and are representative of 5 independent experiments.
C. Splenocytes from a naive Tg4 mouse were cultured in the presence of peptide MBP Ac1-9 (10 μg/ml) and IL-12 with IL-2 added on day 3 of culture to polarise CD4+ cells towards a Th1 phenotype. On day 7 of culture, Th1 CD4+ cells were isolated and restimulated with anti-CD3/anti-CD28 coated beads in the presence of IL-2 and DMSO (1:1000; Control), CHIR99021 (2 μM), SB216763 (5 μM) or SB627772 (10 μM). Intracellular cytokine staining for IFNγ and IL-10 was carried out on day 7 of restimulation after PMA and lonomycin stimulation. Data are plots gated on live CD4^+ cells and are representative of 4 independent experiments.
E. Tissue culture supernatants were taken on day 3 of restimulation and analysed for IL-10 by fluorescent bead immunoassay. Data are mean+/−SEM and are representative of 3 independent experiments.
Splenocytes from a naive Tg4 mouse were cultured in the presence of peptide MBP Ac1-9 (10 μg/ml) and IL12 with IL2 added on day 3 to polarise cells to a Th1 phenotype. On day 7, cells were restimulated with anti CD3/anti CD28 Dynabeads and 2 μM CHIR99021, 3 μM SB216763 or 0.02% DMSO (vehicle control). Cells were analysed by ICCS on Day 7 after stimulation. Intracellular IL-10 levels were increased following treatment with either GSK-3 inhibitor (CHIR99021 or SB216763).
as §1

[4] = system: naive CD4+ T cells; experiment: IL-10 in naive CD4+ T cells cultured with GSK-3 inhibitors (ICCS, bead immunoassay); assay type: cell-based, mouse; conditions: for IL-10 production: naive CD4+CD62L+ T-cells from Tg4 spleens, cultured in the presence of GSK3 inhibitors; for Intracellular IL-10 levels: naive Tg4 CD4+ cells, anti CD3/anti CD28 Dynabeads, 2 μM CHIR99021 or 3 μM SB216763, ICCS day 7
Experimental: A. CD4^+/CD62L^+ T cells were isolated from Tg4 splenocytes and cultured with anti-CD3/anti-CD28 coated beads in the presence of IL-2 and DMSO (1:1000; Control), CHIR99021 (2 μM), SB216763 (5 μM) or SB627772 (10 μM). Intracellular cytokine staining for […] and IL-10 was carried out on day 7 of restimulation after PMA and lonomycin stimulation. Data are plots gated on live CD4^+ cells and are representative of 3 independent experiments.
B. Tissue culture supernatants were taken on day 3 of restimulation and analysed for IL-10 by fluorescent bead immunoassay. Data are mean+/−SEM of 3 independent experiments.
CD4+ cells purified from a naive Tg4 spleen were cultured in the presence of 2 μM CHIR99021, 3 μM SB216763 or 0.02% DMSO (vehicle control) with anti CD3/anti CD28 Dynabeads. Cells were analysed by ICCS on Day 7 after stimulation.
as §1

[5] = system: APC / Th1 CD4+ cells; experiment: IL-10 with APCs from WT or IL-10 knockout mice (ICCS, ELISA); assay type: cell-based, mouse; conditions: 2 μM CHIR99021, APCs from WT or IL10 knockout mice, ICCS and day 3 ELISA
Experimental: A. Splenocytes from a naive Tg4 mouse were cultured in the presence of peptide MBP Ac1-9 (10 μg/ml) and IL-12 with IL-2 added on day 3 of culture to polarise CD4+ cells towards a Th1 phenotype. On day 7 of culture, Th1 cells were restimulated with fresh irradiated APCs from either a B10_PL or B10_PL IL10^−/− mouse in the presence of DMSO (1:1000; Control) or CHIR99021 (2 μM). IL-2 was added on day 3 of culture and intracellular cytokine staining for […] and IL-10 carried out on day 7 of restimulation after PMA and lonomycin stimulation. Data are plots gated on live CD4^+ cells and are representative of 3 independent experiments. B. Tissue culture supernatants were taken on day 3 of restimulation and analysed for IL-10 by ELISA. Data are mean+/−SEM and are representative of 3 independent experiments. Splenocytes from a naive Tg4 mouse were cultured in the presence of either: (a) peptide MBP Ac1-9 (10 μg/ml) and IL12 with IL2 added on day 3 to polarise cells to a Th1 phenotype; or (b) IL4 and anti IFNγ with IL2 added on day 3 to polarise cells to a Th2 phenotype. On day 7 CD4+ cells were restimulated with fresh irradiated APCs from either WT or IL10 knockout mice, 2 μM CHIR99021 or 0.02% DMSO (vehicle control) and peptide […] of MBP (10 μg/ml). Supernatants were taken in triplicate on day 3 and analysed for IL-10 by ELISA (FIG. 3 (E)). […]

[6] = system: β-catenin; conditions: cited from earlier work

Row | Compound | IL-10 mRNA (qPCR) [1] | β-catenin accumulation (Western blot) [2] | β-catenin levels (Western blot) [2] | IL-10 protein [3] | Intracellular IL-10 levels [3] | IL-10 production [4] | Intracellular IL-10 levels [4] | IL-10 in / produced by the APC [5] | Level of β-catenin [6]
1 | Cc1c[nH]c(-c2cnc(NCCNc3ccc(C#N)cn3)nc2-c2ccc(Cl)cc2Cl)n1 [CHIR99021] | upregulation | no accumulation of β-catenin | degradation of β-catenin appears to be inhibited, leading to build up of the β-catenin protein | significantly increased | increased | did not show any change | not significantly affected | Neither the intracellular level of IL-10 in the APC nor the production of IL-10 by the APC was enhanced | –
2 | O=C1NC(=O)C(c2ccccc2[N+](=O)[O-])=C1Nc1ccc(O)c(Cl)c1 [SB415286] | – | – | – | – | – | – | – | – | elevate the level of 13-catenin
3 | Cn1cc(C2=C(c3ccc(Cl)cc3Cl)C(=O)NC2=O)c2ccccc21 [SB216763] | upregulation | no accumulation of β-catenin | does not appear to cause a significant effect on β-catenin levels | significantly increased | increased | did not show any change | not significantly affected | – | –
